In patent US7022721B1, “Method and composition for rejuvenating cells, tissues, organs, hair and nails” (priority 2001, dated 2006):
“And” between values parts separate entries of the source, which are not always exact repeats. Equal values may be shown once. Where a name gives a salt, the structure may show the parent alone.

Tests used:
[1] = test system: Non-enzymatically browned BSA (AGE-BSA) coupled to Collagen Type-I coated plates; assay: Assay of Uncoupling Activity on non-enzymatically browned BSA coupled to collagen coated plates (ELISA); format: biochemical; conditions: for % uncoupling at 5 mM, 1 day: naphthothiazolium test compounds; for % uncoupling at 10 mM, 2 days / % uncoupling at 20 mM, 1 day: sugar-mediated coupling of albumen to collagen
Procedure: Assay of Uncoupling Activity on Non-Enzymattically Browned BSA Coupled to Collagen Coated Plates
Equipment, Reagents, and Other Materials
Mix equal volume of BSA (50 mg/ml in 1×PBS) and glucose (0.5 M in PBS); keep the solution (after filtered through a 0.22 µm filter and placed in a capped bottle) in a 37° C. incubator for 5 weeks.
Remove an aliquot of the solution and dialyze against 500-fold volume of PBS, with 4 changes of buffer within 2 days. Collect the solution, as AGE-BSA, from dialysis bag and determine the protein concentration. […] During this hour, • Rinse the plate washer with autoclaved dH2O and then flush 3 times with PBS-Tween washing buffer containing 0.05% of Tween-20. • Dilute AGE-BSA in 1×PBS to 0.03 g/l. […] (Record the hours of incubation.) • In the meantime, run maintenance program (Overnight rinse/soak) on the plate washer using autoclaved distilled H2O. • After incubation, flush the plate washer 3 times with PBS-Tween washing buffer. • Wash the plate 4 times with 1×PBS buffers containing 0.2% Tween-20. • Wash 6 more times with PBS-0.05% Tween washing buffer in two directions, 3 times/direction. • Prepare 1:8000 dilution (in 1×PBS) of anti-BSA antibody (rabbit IgG-HRP) • Add 50 1 of diluted antibody to the wells, incubate at room temperature for 30 min. • Wash 8 times with PBS-0.05% Tween washing buffer in two directions, 4 times/direction. • Add 100 1 of TMB substrate solution to the wells; incubate at RT for 15 min. • Stop the reaction by adding 100 1 of 2 M H2SO4. • Read absorbance at 450 nm in an ELISA plate reader. • Plot and analyze data.

[2] = Hair stress vs. strain relationship (stiffness) before and after treatment
Description: Methodology for Determination of Hair Stress vs. Strain Relationship (Stiffness).
The distensibility (i.e, elasticity, rigidity, shear, tensile strength, compression, etc.) of hair, nails, tendons, etc. can be easily determined using widely available commercial devices, such as manufactured by Instron. Alternatively, other test methods known to a practitioner of the art may be employed.
The test assay for determining whether hair has been “rejuvenated” for the present invention is the following. Individual scalp hairs were cemented into the ends of glass capillary tubes such that several centimeters of the shaft protruded from the end. This hair was then trimmed to extend 18 mm from the end of the tube. […] Thus, this determination of stress vs strain of bending assessed elasticity, compressibility, and shear of each hair shaft. Each hair served as its own control, with baseline and post-treatment properties assessed and directly compared.
A 1 mm thick plate with a 0.5 mm diameter hole drilled through was attached to the surface of an isometric strain gauge. […] The force required to bend each hair a specified distance was determined over a wide range of displacements. […] For purposes of the present invention, the term “rejuvenated” hair shall mean an improvement of at least 20% in the measured values of the treated hair, toward the values seen in young, undamaged hair (i.e. healthy human). […]

N#CCc1cccc[n+]1CC(=O)N1CCCC1.[Cl-]
melting point: 130 to 132 °C

Cc1c(O)c2ccccc2c2c1sc(=NC(C)C)n2CCCN(C)C.Cl.Cl [1,2-dihydro-1-[3-(dimethylamino)propyl]-4-methyl-2-[(1-methylethyl)imino]naphtho[1,2-d]thiazol-5-ol dihydrochloride]
% uncoupling at 5 mM, 1 day ([1]; 1 day): 19%

O=C(Cn1cc[n+](CC(=O)c2ccccc2)c1)c1ccccc1.[Br-] [1,3-bis(2-oxo-2-phenylethyl)imidazolium bromide]
% uncoupling, 1 day (footnote b: at 10 mM) ([1]; 10 mM, 1 day): 25^b %

N#CCc1cccc[n+]1CC(=O)N1CCCC1.[Br-] [1-[2-(1-pyrrolidinyl)-2-oxoethyl]-2-(cyanomethyl)pyridinium bromide]
% uncoupling at 10 mM, 2 days ([1]; 10 mM): 68%

CCN=c1sc2c(C)c(O)c3ccccc3c2n1CC.Cl [1-ethyl-2-(ethylimino)-1,2-dihydro-4-methylnaphtho[1,2-d]thiazol-5-ol monohydrochloride]
stiffness of hair after treatment ([2]; FIG. 1): decreases the stiffness of hair
resulting stress less than before treatment (hair stiffness) ([2]; hair immersed in 10 mM solution for 15 minutes, strain greater than about 0.06): about 50%
% uncoupling at 5 mM, 1 day ([1]; 1 day, monohydrochloride): 59% and 58%

Cc1sc2[n+](c1C)C=C(c1ccccc1)OC2C.[Br-] (stereo not shown) [2,3,8-Trimethyl-6-phenyl-8H-thiazolo[2,3-c](1,4)oxazin-4-ium bromide]
% uncoupling at 20 mM, 1 day ([1]; 1 day): 34%

Cc1csc(C)[n+]1CC(=O)c1ccccc1.[Br-] [2,4-Dimethyl-3-(2-oxo-2-phenylethyl)thiazolium bromide]
% uncoupling at 10 mM, 2 days ([1]; 10 mM): 36%
% uncoupling at 20 mM, 1 day ([1]; 1 day): 51%

CC(O)c1scc[n+]1CC(=O)N1CCCC1.[Cl-] (stereo not shown) [2-(1-hydroxyethyl)-3-[2-oxo-2-(1-pyrrolidinyl)ethyl]thiazolium chloride]
% uncoupling at 10 mM, 2 days ([1]; 10 mM): 32%

Cc1c(O)c2ccccc2c2c1sc(NC1CCCCC1)[n+]2CCCN1CCN(C)CC1.[Cl-] [2-(Cyclohexylimino)-1,2-dihydro-4-methyl-1-[3-(4-methyl-1-piperazinyl)propyl]naphtho[1,2-d]thiazol-5-ol trihydrochloride]
% uncoupling at 5 mM, 1 day ([1]; 1 day): 21%

Cc1c(O)c2ccccc2c2c1sc(NC1CCCCC1)[n+]2CCCN1CCOCC1 [2-(Cyclohexylimino)-1,2-dihydro-4-methyl-1-[3-(4-morpholino)propyl]naphtho[1,2-d]thiazol-5-ol dihydrochloride]
% uncoupling at 5 mM, 1 day ([1]; 1 day): 22%

CCc1scc(C)[n+]1CC(=O)c1ccccc1.[Br-] [2-Ethyl-4-methyl-3-(2-oxo-2-phenylethyl)thiazolium bromide]
% uncoupling at 20 mM, 1 day ([1]; 1 day): 57%

Cc1nc2c(c[n+]1CC(=O)c1ccccc1)CNC(=O)N2.[Br-] [2-Methyl-3-(2-oxo-2-phenylethyl)-7-oxo-5,6,7,8-tetrahydropyrimidino [4,5-d]pyrimidin-3-ium bromide]
% uncoupling, 1 day (footnote a: at 30 mM) ([1]; 1 day): 22^a %

O=C(C[n+]1ccccc1Cc1ccccc1)c1ccccc1.[Br-] [2-benzyl-1-(2-oxo-2-phenylethyl)pyridinium bromide]
% uncoupling at 20 mM, 1 day ([1]; 1 day): 54%

CC(OC(=O)c1ccccc1)c1scc[n+]1CC(=O)c1ccccc1.[Br-] (stereo not shown) [3-(2-Oxo-2-phenylethyl)-2-(1-benzoyloxyethyl)thiazolium bromide]
% uncoupling at 20 mM, 1 day ([1]; 1 day): 68%

CC(O)c1scc[n+]1CC(=O)c1ccccc1.[Br-] (stereo not shown) [3-(2-Oxo-2-phenylethyl)-2-(1-hydroxyethyl)thiazolium bromide]
% uncoupling at 10 mM, 2 days ([1]; 10 mM): 54%

CC(=O)OC(C)c1scc[n+]1CC(=O)N1CCCC1.[Br-] (stereo not shown) [3-[2-Oxo-2-(1-pyrrolidinyl)ethyl]-2-(1-acetoxyethyl)thiazolium bromide]
% uncoupling at 20 mM, 1 day ([1]; 1 day): 46%

CC(=O)OC(C)c1scc[n+]1CC(=O)c1ccccc1.[Br-] (stereo not shown) [3-[2-Oxo-2-phenylethyl]-2-(1-acetoxyethyl)thiazolium bromide]
% uncoupling at 20 mM, 1 day ([1]; 1 day): 52%

CC(O)c1scc[n+]1CC(=O)O (stereo not shown) [3-carboxymethyl-2-(1-hydroxyethyl)thiazole]
% uncoupling at 20 mM, 1 day ([1]; 1 day): 47%

Cc1sc[n+](CC(=O)c2ccccc2)c1C.[Cl-] [4,5-Dimethyl-3-(2-oxo-2-phenylethyl)thiazolium chloride, reference compound]
% uncoupling at 10 mM, 2 days ([1]; 10 mM): 52%
% uncoupling at 20 mM, 1 day ([1]; 1 day): 39%

Cc1sc(C(C)O)[n+](CC(=O)c2ccccc2)c1C.[Br-] (stereo not shown) [4,5-dimethyl-2-(1-hydroxyethyl)-3-(2-oxo-2-phenylethyl)thiazolium bromide]
% uncoupling at 20 mM, 1 day ([1]; 1 day): 45%
melting point: 174 to 176 °C

Cc1c(O)c2ccccc2c2nc(NCCCN3CCOCC3)sc12 [4-Methyl-2-[[3-(4-morpholino)propyl]amino]naphtho[1,2-d]thiazol-5-ol dihydrochloride]
% uncoupling at 5 mM, 1 day ([1]; 1 day): 36%

CC1OC(=O)C[n+]2ccsc21.[Br-] (stereo not shown) [5,6-Dihydro-8-methyl-6-oxo-8H-thiazolo[2,3-c](1,4)oxazin-4-ium bromide]
% uncoupling, 1 day (footnote a: at 30 mM) ([1]; 1 day): 36^a %
melting point: 214 to 215.5 °C
